Measured values from patent US7622469B2, “2,4-diamino-1,3,5-triazine derivatives” (Hamari Chemicals, Ltd., priority 2002, dated 2009).
≈ marks a conversion by molar mass, not a printed value.

Tests used:
Assay in all cases: Antibacterial activity test (MIC)
Settings in all cases: Mueller-Hinton Broth, 37° C., 20 to 24 hours
MRSA 97-115 = type: cell-based, methicillin-resistant Staphylococcus aureus
Experimental: (§1) Regarding compounds obtained in respective Working Examples, in order to investigate antibacterial activity, minimal inhibitory concentration (MIC) was determined according to a standard method of Japanese Society of Chemotherapy.
(§2) As a test bacterium, nine kinds of S. aureus 209PJC, MRSA 97-115, MRSA KM 97-53, MRSA KM97-108, VRE 49, E. coli NIHJ JC-2, P. aeruginosa PAO-1, P. aeruginosa No. 12, P. aeruginosa KM97-5 were used and, as a medium, Mueller-Hinton Broth (DIFCO) was used. One platinum loop of a test bacterium was inoculated into 20 ml of a medium, and static culture was carried out at 37° C. for 16 to 20 hours, and then each bacterium species was diluted with a sterilized physiological saline to 10^5/ml, which was used as a test bacterium solution.
(§3) Then, each compound was dissolved in methanol, subjected to ½ stepwise dilution with a medium to prepare a medium for measuring sensitivity, and each 2 ml was dispensed into a test tube. A compound concentration in a medium was adjusted to 100 μg/ml and its 2^n-fold (n=−10 to 1).
(§4) Numerical values in Tables represent MIC expressed in μg/ml unit.

P. aeruginosa PAO-1 = type: cell-based
Experimental: as §1, §2, §3, §4

E. coli NIHJ JC-2 = type: cell-based
Experimental: as §1, §2, §3, §4

S. aureus 209PJC = type: cell-based
Experimental: as §1, §2, §3, §4

minimal inhibitory concentration (MIC) (MRSA 97-115) | minimal inhibitory concentration (MIC) (P. aeruginosa PAO-1) | minimal inhibitory concentration (MIC) (E. coli NIHJ JC-2) | minimal inhibitory concentration (MIC) (S. aureus 209PJC) | SMILES
3.1 µg/mL | 50 µg/mL | 25 µg/mL | 1.6 µg/mL | CCCCCCCCCC1N=C(N)N=C(N)N1c1ccc(F)c(F)c1F.Cl (stereo not shown) [compound 30]
3.1 µg/mL | 50 µg/mL | 25 µg/mL | 1.6 µg/mL | CCCCCCCCCCC1N=C(N)N=C(N)N1c1ccc(F)cc1F.Cl (stereo not shown) [compound 33]
1.6 µg/mL | 25 µg/mL | 12.5 µg/mL | 0.8 µg/mL | CC(=O)O.CCCCCCCCNC1=NC(C)(C)N=C(NCc2ccccc2)N1 [compound 52]
3.1 µg/mL | 100 µg/mL | 50 µg/mL | 1.6 µg/mL | CCCCCCCNC1=NC(CC)(CC)N=C(NCc2ccccc2)N1.Cl [compound 53]
1.6 µg/mL | 25 µg/mL | 25 µg/mL | 0.8 µg/mL | CC(=O)O.CCCCCCCCNC1=NC(C)(C)N=C(NCCc2ccccc2)N1 [compound 57]
1.6 µg/mL | 50 µg/mL | 25 µg/mL | 0.8 µg/mL | CC(=O)O.CCCCCCCNC1=NC(C)(C)N=C(NCc2ccc(C)cc2)N1 [compound 59]
6.3 µg/mL | >100 µg/mL | >100 µg/mL | 3.1 µg/mL | CCCCCCCCCCNC1=NC(C)(C)N=C(NCc2ccc(C(=O)O)cc2)N1.Cl [compound 60]
6.3 µg/mL | >100 µg/mL | >100 µg/mL | 6.3 µg/mL | CCCCCCCCCNC1=NC(C)(C)N(c2ccccc2)C(N)=N1.Cl [compound 61]
0.8 µg/mL (≈ 2.11 µM) | 25 µg/mL (≈ 65.9 µM) | 25 µg/mL (≈ 65.9 µM) | 0.8 µg/mL (≈ 2.11 µM) | CCCCCCCCNC1=NC(C)(C)N=C(Nc2cccc3ccccc23)N1 [compound 64]
1.6 µg/mL | >100 µg/mL | 100 µg/mL | 0.8 µg/mL | CC(=O)O.CCCCCCCCNC1=NC(C)(C)N=C(NCCCCCCCC)N1 [compound 66]
1.6 µg/mL | 100 µg/mL | 100 µg/mL | 0.8 µg/mL | CC(=O)O.CCCCCCCCNC1=NC(C)(C)N=C(NCCCCCCC)N1 [compound 67]
1.6 µg/mL | 25 µg/mL | 25 µg/mL | 0.8 µg/mL | CC(=O)O.CCCCCCCNC1=NC(C)(C)N=C(NCCCCCC)N1 [compound 70]
0.8 µg/mL | 100 µg/mL | 100 µg/mL | 0.8 µg/mL | CC(=O)O.CCCCCCCNC1=NC(C)(C)N=C(NC(C)(C)CC(C)(C)C)N1 [compound 71]
3.1 µg/mL | 50 µg/mL | 25 µg/mL | 0.8 µg/mL | CCCCCCCCCCCCNC1=NC(C)(C)N=C(N)N1.O=[N+]([O-])O [compound 75]
1.6 µg/mL | 50 µg/mL | 25 µg/mL | 0.8 µg/mL | CCCCCCCCNC1=NC(C)(C)N=C(NCCCCCC)N1.O=C(O)C(O)C(O)C(O)C(O)CO [compound 76]
1.6 µg/mL (≈ 3.34 µM) | >100 µg/mL | >100 µg/mL | 0.4 µg/mL (≈ 0.836 µM) | CCCCCCCCCCCCNC1=NC(C)(C)N=C(NCc2ccc(S(N)(=O)=O)cc2)N1 [compound 80]

Second part, the compound before the results:

SMILES | minimal inhibitory concentration (MIC) (MRSA 97-115) | minimal inhibitory concentration (MIC) (P. aeruginosa PAO-1) | minimal inhibitory concentration (MIC) (E. coli NIHJ JC-2) | minimal inhibitory concentration (MIC) (S. aureus 209PJC)
CCCCCCCCCCC1N=C(N)NC(Nc2ccc(F)c(F)c2F)=N1.Cl (stereo not shown) [compound 32] | 1.6 µg/mL | 100 µg/mL | 25 µg/mL | 0.8 µg/mL
CCCCCCCCCCC1N=C(N)NC(Nc2ccc(F)cc2F)=N1 (stereo not shown) [compound 34] | 1.6 µg/mL (≈ 4.38 µM) | 100 µg/mL (≈ 274 µM) | 50 µg/mL (≈ 137 µM) | 1.6 µg/mL (≈ 4.38 µM)
CCCCCCCCCCNC1=NC(C)(C)N=C(NCc2ccc(OC)cc2)N1.O=C(O)CC(=O)O [compound 39] | 0.8 µg/mL | 50 µg/mL | 25 µg/mL | 0.4 µg/mL
CCCCCCCCCCNC1=NC(C)(C)N=C(NCc2ccc(OC)cc2)N1.O=C(O)C(=O)O [compound 40] | 0.8 µg/mL | 25 µg/mL | 25 µg/mL | 0.4 µg/mL
CCCCCCCCCCNC1=NC(C)(C)N=C(NCc2ccccc2)N1.O=C(O)C(=O)O [compound 42] | 1.6 µg/mL | 12.5 µg/mL | 12.5 µg/mL | 0.8 µg/mL
CCCCCCCCCNC1=NC(C)(C)N=C(NCc2ccccc2)N1.O=C(O)O [compound 47] | 0.8 µg/mL | 12.5 µg/mL | 12.5 µg/mL | 0.4 µg/mL
CCCCCCCCCCCNC1=NC(C)(C)N=C(NCc2ccccc2)N1.O=C(O)C(=O)O [compound 51] | 0.8 µg/mL | 100 µg/mL | 50 µg/mL | 0.4 µg/mL
CC(=O)O.CCCCCCCNC1=NC2(CCCC2)N=C(NCc2ccccc2)N1 [compound 54] | 1.6 µg/mL | 100 µg/mL | 50 µg/mL | 0.8 µg/mL
CCCCCCCCCCNC1=NC(C)(C)N=C(NCCc2ccccc2)N1.O=C(O)CC(=O)O [compound 55] | 0.8 µg/mL | 50 µg/mL | 12.5 µg/mL | 0.4 µg/mL
CC(=O)O.CCCCCCCCCNC1=NC(C)(C)N=C(Nc2ccccc2)N1 [compound 62] | 0.8 µg/mL | 12.5 µg/mL | 12.5 µg/mL | 0.8 µg/mL
CCCCCCCCNC1=NC(C)(C)N(c2cccc3ccccc23)C(N)=N1.Cl [compound 63] | 6.3 µg/mL | 100 µg/mL | 100 µg/mL | 6.3 µg/mL
CC(=O)O.CCCCCCCCCCCCNC1=NC(C)(C)N=C(NCC)N1 [compound 73] | 1.6 µg/mL | 50 µg/mL | 12.5 µg/mL | 0.8 µg/mL
CC(=O)O.CCCCCCCCNC1=NCN=C(NCCCCCCCC)N1 [compound 74] | 0.8 µg/mL | 100 µg/mL | 12.5 µg/mL | 0.8 µg/mL
CC(=O)O.CCCCCCCCCCCCNC1=NC(C)(C)N=C(NCc2ccco2)N1 [compound 79] | 1.6 µg/mL | 100 µg/mL | 50 µg/mL | 0.8 µg/mL
CCCCCCCCNC1=NC(C)(C)N(c2cnc3ccccc3c2)C(N)=N1.Cl.Cl [compound 81] | 1.6 µg/mL | 50 µg/mL | 12.5 µg/mL | 0.8 µg/mL
